The record followed here is patent US12152049B2, “STING agonistic compound” (ONO PHARMACEUTICAL CO., LTD., priority 2018, dated 2024).

pEC50: −log10 of the molar value. Counter-ions that a name gives are not always drawn.

For orientation: pEC50 means the negative decadic logarithm of the EC50, by convention in mol/L. Read a low pEC50 as a large EC50.

The subject of one assay is THP1-Dual cells. Put plainly: Effects on THP1-Dual cells: activation of the IRF pathway (Quanti-luc luminescence). The note with it: Homo sapiens, incubation about 24 hours. The format is cell-based. Here is the method: THP1-Dual cells (Invivogen) were suspended in RPMI medium to prepare 2×10^6 cells/mL of cell suspension. 50 μL of the cell suspensions were dispensed into a 96-well plate, to which 50 μL of 6 to 20,000 nmol/L compound solutions were added. After adding the compound, the mixture was incubated at 37° C. for about 24 hours. After incubation, 10 μL of cell suspensions were collected from the respective wells, which were mixed with 50 μL of Quanti-luc (Invivogen). Then, the activation of the IRF (Interferon regulatory factor) pathway was measured by detecting luminescence using a microplate reader (Molecular Devices).

The test system of the next assay is THP1-Dual-STING KO cells. Put plainly: Activity on THP1-Dual-STING KO cells: IRF pathway (Quanti-luc luminescence). The format is cell-based. The note with it: STING gene homozygous deficient THP1-Dual cells, 6 to 20,000 nM compound solutions, about 24 hours. Here is the method:
STING gene homozygous deficient THP1-Dual cells (THP1-Dual-STING KO cells (Invivogen) were suspended in RPMI medium to prepare 2×10^6 cells/mL cell suspension. 50 μL of cell suspensions were dispensed into a 96-well plate, to which 50 μL of 6 to 20,000 nM compound solutions were further added, followed by incubation at 37° C. for about 24 hours. 10 μL of the cell suspensions were collected from the respective wells, which were mixed with 50 μL of Quanti-luc (Invivogen), and then the activity of the IRF pathway was measured by detecting luminescence using a microplate reader.

The next assay addresses T1, IDO1 (Homo sapiens, UniProt P14902).
T1 construct: His-tag; purchased BPS Bioscience
Briefly: Evaluation of IDO1 inhibitory activity (IDO1 Fluorogenic Inhibitor Screening Assay Kit). It is filed as biochemical. The settings on record: compound solutions of 0.6, 2, 6, 20, 60 and 200 μmol/L added. Here is the method: The evaluation of IDO1 inhibitory activity was carried out using the IDO1 Fluorogenic Inhibitor Screening Assay Kit (BPS Bioscience). Specifically, IDO1 Fluorogenic Reaction Solution was dissolved, of which 180 μL were added to each well. Then, 10 μL of compounds at the respective concentrations of 0.6, 2, 6, 20, 60 and 200 μmol/L were added thereto. Further, after adding 10 μL of IDO1 His-Tag solution thereto, of which the mixtures were incubated at room temperature for 1 hour, and then 20 μL of Fluorescence Solution was added thereto, of which the mixtures were incubated at 37° C. for 4 hours. After standing them at room temperature for 10 minutes, the fluorescence was measured using a microplate reader (excitation: 400 nm, emission: 510 nm).

The test system of assay [1] is BTK, KDR, each subtype of PKCα to ι, each CDK of CDK2 to 9, FAK, TIE2, RAF1 and BRAF. Briefly: Evaluation of inhibitory activity against various kinases (mobility shift, LabChip). It is filed as biochemical. The settings on record: 4 μmol/L test substance solution (4 times the final concentration). On the procedure:
4 μmol/L of test substance solution (the compound of the present invention shown in Example 1) (at 4 times the final concentration) was prepared by dissolving it to the assay buffer (20 mmol/L HEPES, 0.01% Triton X-100, 1 mmol/L DTT, pH 7.5). 4 μmol/L of substrate/ATP/metal solution (at 4 times the final concentration) was prepared by dissolving them to the kit buffer (20 mmol/L HEPES, 0.01% Triton X-100, 5 mmol/L DTT, pH 7.5).
Various kinase solutions at twice the final concentration were prepared by dissolving them to the assay buffer. 5 μL of the test substance solution, 5 μL of the substrate/ATP/metal solution and 10 μL of the kinase solution were mixed in wells of a polypropylene 384-well plate, of which the mixture was reacted at room temperature for 1 to 5 hours. The reaction was stopped by adding 70 μL of the termination buffer (QuickScout Screening Assist MSA; Cama Biosciences). The substrate peptide and phosphorylated peptide in the reaction solution were separated and quantified by LabChip system (Perkin Elmer). The kinase reaction was evaluated by the product ratio (P/(P+S)) calculated from the peak height (S) of the substrate peptide and the peak height (P) of the phosphorylated peptide. The various kinases used for evaluation are as follows:
BTK, KDR, each subtype of PKCα to ι, each CDK of CDK2 to 9, FAK, TIE2, RAF1 and BRAF.

The subject of assay [2] is mouse colon cancer cell line MC38. Briefly: Anti-tumor effect in tumor model bearing subcutaneous mouse colon cancer cell line MC38. The format is in vivo, mice (C57/BL6). The settings on record: 3 mg/kg, administered 7 days after MC38 transplantation, measured until Day 26. Here is the method:
Colon cancer cell line MC38 derived from C57/BL6 mice were subcutaneously transplanted to right flank of syngeneic mice (C57/BL6, female, 6 weeks old (Charles River Japan)) (herein, the day of transplantation was Day 0) to prepare tumor mice bearing subcutaneous MC38. Seven days after transplantation, tumor mice bearing subcutaneous MC38 were grouped based on tumor volume, and used as the Vehicle group (n=8) and the compound administration group (3 mg/kg, n=6) shown in Example 1. The changes in tumor volume were continuously measured until the 26 days after transplantation (Day 26). The tumor volume was calculated by the following formula: [Tumor volume (mm^3)]=[major axis (mm)]×[minor axis (mm)]^2×0.5
Colon cancer cell line MC38 derived from C57/BL6 mice were subcutaneously transplanted to right flank of syngeneic mice (C57/BL6, female, 6 weeks old (Charles River Japan)) (herein, the day of transplantation was Day 0) to prepare tumor mice bearing subcutaneous MC38. They were grouped based on tumor volume 7 or 8 days after transplantation, to which the Vehicle (n=8 or 6) and the respective compounds of Examples 10 and 10(1) to 10(6) (1, 1, 1, 10, 3, 1 and 1 mg/kg, n=8 or 6) were administered. The changes in tumor volume were measured serially until the 28 or 30 days after transplantation (Day 28 or 30). The tumor volume was calculated from the formula shown in Example 16.

T1 sequence (P14902 whole entry): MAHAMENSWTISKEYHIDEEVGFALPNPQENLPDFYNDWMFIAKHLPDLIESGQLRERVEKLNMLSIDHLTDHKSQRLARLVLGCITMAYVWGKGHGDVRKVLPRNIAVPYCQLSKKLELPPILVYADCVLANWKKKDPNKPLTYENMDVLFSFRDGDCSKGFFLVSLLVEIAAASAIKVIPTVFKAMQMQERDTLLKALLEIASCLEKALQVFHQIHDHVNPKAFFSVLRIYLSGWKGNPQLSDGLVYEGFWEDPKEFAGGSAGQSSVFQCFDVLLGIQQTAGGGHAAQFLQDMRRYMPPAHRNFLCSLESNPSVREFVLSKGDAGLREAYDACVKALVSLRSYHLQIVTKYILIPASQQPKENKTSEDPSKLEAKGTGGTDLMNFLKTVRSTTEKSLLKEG

In the assay on THP1-Dual cells, `COC(=O)c1cc(-c2ncc(-c3cn[nH]c3)c3onc(N)c23)c(F)cc1N` [Example 1, methyl 2-amino-5-(3-amino-7-(1H-pyrazol-4-yl)isoxazolo[4,5-c]pyridin-4-yl)-4-fluorobenzoate] had a pEC50 of 6.74. Also, in the assay with THP1-Dual-STING KO cells, the IRF activating effect result is reported as “no IRF activating effect”. Moreover, the IDO1 inhibitory activity result on IDO1 is “did not show any IDO1 inhibitory activity”. Further, the “inhibitory activity against the evaluated kinases” value in assay [1] is “did not showed any significantly inhibit activities”. Further, the “tumor growth (tumor volume)” value in assay [2] is recorded as “almost completely suppressed the tumor growth”.
Turning to `COc1cc(-c2ncc(-c3cn[nH]c3)c3onc(N)c23)c(F)cc1N` [Example 2, 4-(4-amino-2-fluoro-5-methoxyphenyl)-7-(1H-pyrazol-4-yl)isoxazolo[4,5-c]pyridin-3-amine hydrochloride], the pEC50 with THP1-Dual cells is 5.71.
`CC(=O)c1cc(-c2ncc(-c3cn[nH]c3)c3onc(N)c23)c(F)cc1N` [Example 3, 1-(2-amino-5-(3-amino-7-(1H-pyrazol-4-yl)isoxazolo[4,5-c]pyridin-4-yl)-4-fluorophenyl)ethan-1-one] showed a pEC50 with THP1-Dual cells of 7.40.
Turning to `CS(=O)(=O)c1cc(-c2ncc(-c3cn[nH]c3)c3onc(N)c23)c(F)cc1N` [Example 4(3), 4-(4-amino-2-fluoro-5-(methylsulfonyl)phenyl)-7-(1H-pyrazol-4-yl)isoxazolo[4,5-c]pyridin-3-amine hydrochloride], the pEC50 in the assay with THP1-Dual cells is 6.02.
Same read-out and setting: for `NC(=O)c1cc(-c2ncc(-c3cn[nH]c3)c3onc(N)c23)c(F)cc1N` [Example 4(5), 2-amino-5-(3-amino-7-(1H-pyrazol-4-yl)isoxazolo[4,5-c]pyridin-4-yl)-4-fluorobenzamide hydrochloride] the value was 7.10; for `CCOC(=O)c1cc(-c2ncc(-c3cn[nH]c3)c3onc(N)c23)c(F)cc1N` [Example 4(6), ethyl 2-amino-5-(3-amino-7-(1H-pyrazol-4-yl)isoxazolo[4,5-c]pyridin-4-yl)-4-fluorobenzoate hydrochloride], 7.40.
As for `CCC(=O)c1cc(-c2ncc(-c3cn[nH]c3)c3onc(N)c23)c(F)cc1N` [Example 4(7), 1-(2-amino-5-(3-amino-7-(1H-pyrazol-4-yl)isoxazolo[4,5-c]pyridin-4-yl)-4-fluorophenyl)propan-1-one hydrochloride], the pEC50 in the assay with THP1-Dual cells was 7.70.
Still for that read-out and setting: for `CCNC(=O)c1cc(-c2ncc(-c3cn[nH]c3)c3onc(N)c23)c(F)cc1N` [Example 4(8), 2-amino-5-(3-amino-7-(1H-pyrazol-4-yl)isoxazolo[4,5-c]pyridin-4-yl)-N-ethyl-4-fluorobenzamide hydrochloride] the value was 7.70.
As to `CC(=O)c1cc(-c2ncc(-c3cn[nH]c3)c3onc(N)c23)ccc1N` [Example 4(9), 1-(2-amino-5-(3-amino-7-(1H-pyrazol-4-yl)isoxazolo[4,5-c]pyridin-4-yl)phenyl)ethan-1-one hydrochloride], in the assay with THP1-Dual cells, the pEC50 was 6.89.
Still for that read-out and setting: then `CNC(=O)c1cc(-c2ncc(-c3cn[nH]c3)c3onc(N)c23)ccc1N` [Example 4(15), 2-amino-5-(3-amino-7-(1H-pyrazol-4-yl)isoxazolo[4,5-c]pyridin-4-yl)-N-methylbenzamide hydrochloride], with 7.00; and `CSc1cc(-c2ncc(-c3cn[nH]c3)c3onc(N)c23)c(Cl)cc1N` [Example 4(16), 4-(4-amino-2-chloro-5-(methylthio)phenyl)-7-(1H-pyrazol-4-yl)isoxazolo[4,5-c]pyridin-3-amine hydrochloride], with 6.00; and `CSc1cc(-c2ncc(-c3cn[nH]c3)c3onc(N)c23)c(F)cc1N` [Example 4, 4-(4-amino-2-fluoro-5-(methylthio)phenyl)-7-(1H-pyrazol-4-yl)isoxazolo[4,5-c]pyridin-3-amine hydrochloride], with 7.05.
